Source: patent US8765748B2, “Indazolyl, benzimidazolyl, benzotriazolyl substituted indolinone derivatives as kinase inhibitors useful in the treatment of cancer” (University Health Network, priority 2007, dated 2014)

What was measured:
PLK3 = molecular target: T1, PLK3 (Homo sapiens, UniProt Q9H4B4); experiment: PLK3 Inhibition Assay (Z-Lyte); format: biochemical; conditions: 100 μM ATP, 21 nM PLK3
T1 construct: purchased Invitrogen PV3812
Protocol: (§1) PLK3 inhibition was determined using the Z-Lyte assay kit from Invitrogen (cat #PV3802). The assay was performed using the recommended manufacturer's instructions with 100 μM ATP and 21 nM PLK3 (Invitrogen cat #PV3812). The % inhibition values were determined according to the manufacturer's directions and IC50 values were obtained using a non-linear 4 point logistic curve fit (XLfit4, IDBS).

PLK1 = molecular target: T2, PLK1 (Homo sapiens, UniProt P53350); experiment: PLK1 Inhibition Assay (Z-Lyte); format: biochemical; conditions: 25 μM ATP, 8 nM PLK1; read-out: PLK1 IC50 Ranges
T2 construct: purchased Invitrogen PV3501
T2 sequence (P53350 whole entry): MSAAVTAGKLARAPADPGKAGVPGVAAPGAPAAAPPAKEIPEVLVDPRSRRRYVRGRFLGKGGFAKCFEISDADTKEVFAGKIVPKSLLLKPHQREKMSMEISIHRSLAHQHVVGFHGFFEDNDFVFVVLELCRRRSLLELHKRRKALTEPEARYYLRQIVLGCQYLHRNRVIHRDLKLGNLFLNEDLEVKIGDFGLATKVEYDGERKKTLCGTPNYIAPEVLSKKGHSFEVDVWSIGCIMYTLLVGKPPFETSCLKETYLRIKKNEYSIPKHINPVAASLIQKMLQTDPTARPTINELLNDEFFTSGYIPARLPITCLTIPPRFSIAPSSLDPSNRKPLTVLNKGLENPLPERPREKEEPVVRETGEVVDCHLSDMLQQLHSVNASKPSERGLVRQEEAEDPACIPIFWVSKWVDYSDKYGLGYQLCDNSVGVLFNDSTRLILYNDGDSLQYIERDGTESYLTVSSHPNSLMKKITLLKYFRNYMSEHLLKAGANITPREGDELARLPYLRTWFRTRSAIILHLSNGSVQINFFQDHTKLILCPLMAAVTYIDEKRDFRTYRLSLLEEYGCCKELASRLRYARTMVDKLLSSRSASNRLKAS
Protocol: PLK1 inhibition was determined using the Z-Lyte assay kit from Invitrogen (cat #PV3802). […] The % inhibition values were determined according to the manufacturer's directions and IC50 values were obtained using a non-linear 4 point logistic curve fit (XLfit4, IDBS)

Aurora B = molecular target: T3, Aurora B (Homo sapiens, UniProt Q96GD4); experiment: Aurora B Inhibition Assay (Z-Lyte); format: biochemical; conditions: for IC50: 128 μM ATP, 28 nM Aurora B, read-out: Aurora B IC50 Ranges
T3 construct: purchased Invitrogen PV3970
T3 sequence (Q96GD4 whole entry): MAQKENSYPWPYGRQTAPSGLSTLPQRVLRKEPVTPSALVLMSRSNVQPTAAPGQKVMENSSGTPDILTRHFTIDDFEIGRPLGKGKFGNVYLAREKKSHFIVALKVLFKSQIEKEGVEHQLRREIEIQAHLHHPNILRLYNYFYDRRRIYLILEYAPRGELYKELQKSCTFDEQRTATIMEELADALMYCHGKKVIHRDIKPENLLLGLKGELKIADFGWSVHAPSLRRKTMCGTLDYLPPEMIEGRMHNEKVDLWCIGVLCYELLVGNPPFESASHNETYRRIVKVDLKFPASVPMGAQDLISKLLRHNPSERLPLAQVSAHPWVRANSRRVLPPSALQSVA
Protocol: as §1, with “Aurora B” for “PLK3”, “Invitrogen.” for “Invitrogen (cat #PV3802).”, “128” for “100”, “28” for “21”, “#PV3970).” for “#PV3812).”, “IDBS)” for “IDBS).”

Aurora A = molecular target: T4, Aurora A (Homo sapiens, UniProt O14965); experiment: Aurora A Inhibition Assay (Z-Lyte); format: biochemical; conditions: for IC50: 20 μM ATP, 12 nM Aurora A, read-out: Aurora A IC50 Ranges
T4 construct: purchased Invitrogen PV3612
T4 sequence (O14965 1-403): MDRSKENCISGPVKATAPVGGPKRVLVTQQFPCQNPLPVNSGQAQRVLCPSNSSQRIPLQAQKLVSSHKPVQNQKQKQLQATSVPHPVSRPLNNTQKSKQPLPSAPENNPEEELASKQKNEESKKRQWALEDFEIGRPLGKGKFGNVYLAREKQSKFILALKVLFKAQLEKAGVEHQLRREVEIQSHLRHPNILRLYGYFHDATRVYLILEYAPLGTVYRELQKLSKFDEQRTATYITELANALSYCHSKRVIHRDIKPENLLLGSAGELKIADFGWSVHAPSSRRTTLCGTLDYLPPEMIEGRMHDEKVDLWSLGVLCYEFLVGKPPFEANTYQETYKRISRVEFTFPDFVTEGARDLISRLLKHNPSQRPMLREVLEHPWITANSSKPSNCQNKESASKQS
Protocol: as §1, with “Aurora A” for “PLK3”, “Invitrogen.” for “Invitrogen (cat #PV3802).”, “20” for “100”, “12” for “21”, “#PV3612).” for “#PV3812).”, “IDBS)” for “IDBS).”

human PLK4 = molecular target: T5, human PLK4 (Homo sapiens, UniProt O00444); experiment: PLK4 Inhibition Assay (indirect ELISA); format: biochemical; conditions: 15 μM ATP, 4 nM GST-PLK4; read-out: PLK4 IC50 Ranges
T5 construct: amino terminal GST fusion of residues 1-391 of human PLK4; made in house; host or cells: E. coli
T5 sequence (O00444 1-391): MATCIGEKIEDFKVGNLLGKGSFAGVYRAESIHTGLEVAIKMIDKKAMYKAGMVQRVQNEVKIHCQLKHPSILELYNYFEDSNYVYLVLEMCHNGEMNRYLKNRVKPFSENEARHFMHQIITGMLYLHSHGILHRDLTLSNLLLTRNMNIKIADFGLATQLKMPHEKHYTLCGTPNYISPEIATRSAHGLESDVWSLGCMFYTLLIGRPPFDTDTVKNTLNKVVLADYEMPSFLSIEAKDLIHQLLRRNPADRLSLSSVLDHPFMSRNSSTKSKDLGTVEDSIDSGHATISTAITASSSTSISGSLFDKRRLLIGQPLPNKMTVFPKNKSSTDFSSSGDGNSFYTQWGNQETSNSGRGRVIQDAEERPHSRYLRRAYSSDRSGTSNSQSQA
Summary of the method: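 IC50 values, from 4-point logistic fitting, reflect remaining activity measured by indirect ELISA. Enzyme was GST-PLK4 treated with lambda phosphatase and given a 15-minute pre-incubation with compound before ATP start.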

PLK2 = molecular target: T6, PLK2 (Homo sapiens, UniProt Q9NYY3); experiment: PLK2 Inhibition Assay (Z-Lyte); format: biochemical; conditions: for inhibition at 10 µM: 10 μM compound, read-out: PLK2 relative inhibition percentage at a dose of 10 μM
T6 construct: purchased Invitrogen PV4204
T6 sequence (Q9NYY3 whole entry): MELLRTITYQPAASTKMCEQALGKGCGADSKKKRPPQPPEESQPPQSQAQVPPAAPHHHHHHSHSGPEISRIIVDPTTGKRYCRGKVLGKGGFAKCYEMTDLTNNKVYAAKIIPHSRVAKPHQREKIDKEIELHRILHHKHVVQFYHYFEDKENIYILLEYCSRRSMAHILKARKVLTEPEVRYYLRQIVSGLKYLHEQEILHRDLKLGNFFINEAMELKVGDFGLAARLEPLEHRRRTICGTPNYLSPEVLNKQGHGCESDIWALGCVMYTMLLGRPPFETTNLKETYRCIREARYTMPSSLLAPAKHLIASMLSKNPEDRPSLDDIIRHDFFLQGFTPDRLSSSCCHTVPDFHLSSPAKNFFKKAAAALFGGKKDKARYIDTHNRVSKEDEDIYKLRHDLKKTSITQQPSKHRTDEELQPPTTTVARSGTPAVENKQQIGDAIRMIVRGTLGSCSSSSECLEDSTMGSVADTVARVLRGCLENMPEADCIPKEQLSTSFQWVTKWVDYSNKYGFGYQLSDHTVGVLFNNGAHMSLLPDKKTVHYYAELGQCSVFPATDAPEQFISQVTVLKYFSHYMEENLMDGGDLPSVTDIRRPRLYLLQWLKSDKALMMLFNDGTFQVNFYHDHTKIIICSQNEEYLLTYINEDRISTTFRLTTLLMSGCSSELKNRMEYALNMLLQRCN
Protocol: as §1, with “PLK2” for “PLK3”, “60” for “100”, “133” for “21”, “#PV4204).” for “#PV3812).”, “IDBS)” for “IDBS).”

[1] = system: MCF-7 luminal breast cancer cell line; experiment: Cell growth inhibition, Sulforhodamine B assay (SRB); format: cell-based; conditions: Homo sapiens, MCF7, 120 h; 5 days culture, SRB; read-out: Cell Line GI50 Range, MCF-7
Protocol: (§2) Breast cancer cells (MCF-7, MDA-MB-468, HCC1954), colon cancer cells (SW620) and lung cancer cells (A549), together with human mammary epithelial primary cells (HMEC), were seeded (1000 to 4000 per 80 μl per well depending on the cell growth rate) into 96 well plates, 24 hours before compound overlay. Compounds were prepared as 10 mM stock solutions in 100% DMSO which were diluted with DMEM (Dulbecco's Modified Eagle's Medium) cell growth Medium (Invitrogen, Burlington, ON, Canada) containing 10% FBS (Fetal Bovine Serum) to concentrations ranging from 50 nM to 250 μM. Aliquots (20 μl) from each concentration were overlaid to 80 μl of the pre-seeded cells in the 96 well plates to make final concentrations of 10 nM to 50 μM. The cells were cultured for 5 days before the Sulforhodamine B assay (SRB) was performed to determine the compound's cell growth inhibition activity.
(§3) Sulforhodamine B (purchased from Sigma, Oakville, ON, Canada) is a water-soluble dye that binds to the basic amino acids of the cellular proteins. Thus, colorimetric measurement of the bound dye provides an estimate of the total protein mass that is related to the cell number. the cells are fixed in situ by gently aspirating off the culture media and adding 50 μl ice cold 10% Tri-chloroacetic Acid (TCA) per well and incubate at 4° C. for 30-60 min, The plates are washed with water five times and allowed to air dry for 5 min. Addition of 50 μl 0.4% (w/v) SRB solution in 1% (v/v) acetic acid to each well and incubatation for 30 min at RT completes the staining reaction. Following staining, plates are washed four times with 1% acetic acid to remove unbound dye and then allowed to air dry for 5 min. The stain is solubilized with 100 μl of 10 mM Tris pH10.5 per well. Absorbance is read at 570 nm.
(§4) The percentage (%) of relative growth inhibition was calculated by comparing to DMSO treated only cells (100%). GI50's were determined for compounds with cytotoxic activity. The GI50 was calculated using GraphPad PRISM software (GraphPad Software, Inc., San Diego, Calif., USA).

[2] = system: MDA-MB-468 basal breast cancer cell line; experiment: as above; format: cell-based; conditions: Homo sapiens, MDA-MB-468, 120 h; 5 days culture, SRB; read-out: Cell Line GI50 Range, MDA-MB-468
Protocol: as §2, §3, §4

[3] = system: HCC1954 basal breast cancer cell line; experiment: as above; format: cell-based; conditions: Homo sapiens, HCC1954, 120 h, 5 days culture, read-out: Cell Line GI50 Range, HCC-1954
Protocol: as §2, §3, §4

SW620 colon cancer cells = experiment: as above; format: cell-based; conditions: Homo sapiens, SW-620, 120 h, 5 days culture, read-out: Cell Line GI50 Range, SW-620
Protocol: as §2, §3, §4

A549 lung cancer cells = experiment: as above; format: cell-based; conditions: Homo sapiens, A549, 120 h, 5 days culture, read-out: Cell Line GI50 Range, A-549
Protocol: as §2, §3, §4

T1 sequence (Q9H4B4 whole entry): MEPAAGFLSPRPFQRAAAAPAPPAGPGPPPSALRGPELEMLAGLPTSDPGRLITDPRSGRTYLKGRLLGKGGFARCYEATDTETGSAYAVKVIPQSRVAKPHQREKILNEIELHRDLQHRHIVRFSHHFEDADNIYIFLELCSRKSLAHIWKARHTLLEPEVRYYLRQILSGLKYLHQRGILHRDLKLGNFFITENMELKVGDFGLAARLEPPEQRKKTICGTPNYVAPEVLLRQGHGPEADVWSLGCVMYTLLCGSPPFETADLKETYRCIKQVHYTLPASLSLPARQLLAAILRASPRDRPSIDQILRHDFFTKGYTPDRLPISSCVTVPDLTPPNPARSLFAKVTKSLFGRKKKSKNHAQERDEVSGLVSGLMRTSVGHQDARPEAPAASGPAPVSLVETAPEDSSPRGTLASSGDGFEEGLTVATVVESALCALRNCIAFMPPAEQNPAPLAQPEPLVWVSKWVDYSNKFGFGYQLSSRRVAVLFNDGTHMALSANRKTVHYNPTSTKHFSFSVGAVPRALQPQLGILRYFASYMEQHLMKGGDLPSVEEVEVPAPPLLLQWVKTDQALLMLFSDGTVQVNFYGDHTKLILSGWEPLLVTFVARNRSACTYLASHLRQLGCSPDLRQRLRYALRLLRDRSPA

| SMILES | IC50 (PLK3) | IC50 (PLK1) | inhibition at 10 µM (Aurora B; 10 μM compound, read-out: Aurora B relative inhibition percentage at a dose of 10 μM) | IC50 (Aurora A) | IC50 (human PLK4) | inhibition at 10 µM (PLK2) | IC50 (Aurora B) | GI50 [1] | GI50 [2] | GI50 [3] | GI50 (SW620 colon cancer cells) | GI50 (A549 lung cancer cells) | inhibition at 10 µM (Aurora A; 10 μM compound, read-out: Aurora A relative inhibition percentage at a dose of 10 μM) | IC50 (PLK2; 60 μM ATP, 133 nM PLK2, read-out: PLK2 IC50 Ranges) |
| --- | --- | --- | --- | --- | --- | --- | --- | --- | --- | --- | --- | --- | --- | --- |
| CC(C)NC(=O)Nc1ccc2c(c1)/C(=C\c1ccc3cn[nH]c3c1)C(=O)N2 [Example A26, (E)-1-(3-((1H-indazol-6-yl)methylene)-2-oxoindolin-5-yl)-3-isopropylurea] | > 0.5 µM | 5 to 50 µM | < 50% | < 5 µM | < 5 µM | < 50% | – | – | – | – | – | – | – | – |
| CC(=O)Nc1cccc2c1NC(=O)/C2=C/c1ccc2cn[nH]c2c1 [Example A49, (E)-N-(3-((1H-indazol-6-yl)methylene)-2-oxoindolin-7-yl)acetamide] | > 0.5 µM | > 50 µM | – | – | < 5 µM | > 50% | – | – | – | – | – | – | – | – |
| COc1ccc2c(c1)/C(=C\c1ccc3c(C#Cc4cccnc4)n[nH]c3c1)C(=O)N2 [Example A148, (E)-5-methoxy-3-((3-(pyridin-3-ylethynyl)-1H-indazol-6-yl)methylene)indolin-2-one] | > 0.5 µM | – | – | – | < 5 µM | – | < 5 µM | – | – | – | – | – | – | – |
| CC(C)c1ccc2c(c1)/C(=C\c1ccc3c(/C=C/c4ccncc4)n[nH]c3c1)C(=O)N2 [Example A127, (E)-5-isopropyl-3-((3-((E)-2-(pyridin-4-yl)vinyl)-1H-indazol-6-yl)methylene)indolin-2-one 2,2,2-trifluoroacetate] | > 0.5 µM | – | – | < 5 µM | < 5 µM | – | < 5 µM | < 5 µM | < 5 µM | < 5 µM | < 5 µM | 5 to 20 µM | – | – |
| CN(C)c1ccc(C#Cc2n[nH]c3cc(C=C4C(=O)Nc5ccccc54)ccc23)cc1 (mixture of isomers) [Example A149, (E and Z)-3-((3-((4-(dimethylamino)phenyl)ethynyl)-1H-indazol-6-yl)methylene)indolin-2-one] | > 0.5 µM | – | – | 5 to 50 µM | < 5 µM | – | < 5 µM | – | – | – | – | – | – | – |
| CN1CCN(c2ncc(-c3n[nH]c4cc(C=C5C(=O)Nc6ccc(OC(F)(F)F)cc65)ccc34)cn2)CC1 [Example A152, (E & Z)-3-((3-(2-(4-methylpiperazin-1-yl)pyrimidin-5-yl)-1H-indazol-6-yl)methylene)-5-(trifluoromethoxy)indolin-2-one] | > 0.5 µM | – | – | – | < 5 µM | – | 5 to 50 µM | – | – | – | – | – | – | – |
| O=C1Nc2ccccc2/C1=C\c1ccc2[nH]ncc2c1 [Example A6, (E)-3-((1H-indazol-5-yl)methylene)indolin-2-one] | > 0.5 µM | 5 to 50 µM | – | < 5 µM | < 5 µM | – | < 5 µM | 5 to 20 µM | 5 to 20 µM | – | – | – | – | < 5 µM |

Next, values leading:

| IC50 (PLK3) | IC50 (PLK1) | inhibition at 10 µM (Aurora B; 10 μM compound, read-out: Aurora B relative inhibition percentage at a dose of 10 μM) | IC50 (Aurora A) | IC50 (human PLK4) | inhibition at 10 µM (PLK2) | IC50 (Aurora B) | GI50 [1] | GI50 [2] | GI50 [3] | GI50 (SW620 colon cancer cells) | GI50 (A549 lung cancer cells) | inhibition at 10 µM (Aurora A; 10 μM compound, read-out: Aurora A relative inhibition percentage at a dose of 10 μM) | IC50 (PLK2; 60 μM ATP, 133 nM PLK2, read-out: PLK2 IC50 Ranges) | SMILES |
| --- | --- | --- | --- | --- | --- | --- | --- | --- | --- | --- | --- | --- | --- | --- |
| > 0.5 µM | 5 to 50 µM | – | < 5 µM | < 5 µM | < 50% | < 5 µM | > 50 µM | 5 to 20 µM | – | – | – | – | – | Nc1ccc2c(c1)/C(=C\c1ccc3[nH]nnc3c1)C(=O)N2 [Example A2, (E)-3-((1H-benzo[d][1,2,3]triazol-5-yl)methylene)-5-aminoindolin-2-one] |
| > 0.5 µM | – | – | < 5 µM | < 5 µM | – | < 5 µM | – | – | – | – | – | – | – | COc1ccc2c(c1)C(=Cc1ccc3c(-c4cccc(-c5nnn[nH]5)c4)n[nH]c3c1)C(=O)N2 (mixture of isomers) [Example A153, (E and Z)-3-((3-(3-(1H-tetrazol-5-yl)phenyl)-1H-indazol-6-yl)methylene)-5-methoxyindolin-2-one] |
| > 0.5 µM | – | – | – | < 5 µM | – | < 5 µM | – | – | – | – | – | > 50% | – | Cc1ccc2c(c1)/C(=C\c1ccc3c(/C=C/C(=O)N(C)CCN(C)C)n[nH]c3c1)C(=O)N2 [Example A125, (E and Z)—N-(2-(dimethylamino)ethyl)-N-methyl-3-(6-((E)-(5-methyl-2-oxoindolin-3-ylidene)methyl)-1H-indazol-3-yl)acrylamide] |
| > 0.5 µM | – | – | – | 5 to 50 µM | – | – | – | – | – | – | – | – | – | N#Cc1cccc2c1NC(=O)C2=Cc1ccc2cn[nH]c2c1 (mixture of isomers) [Example A45, (E and Z)-3-((1H-indazol-6-yl)methylene)-2-oxoindoline-7-carbonitrile] |
